Assay results taken from PubChem BioAssay AID274 (DTP/NCI, 2004).
“And” between values parts separate entries of the source, which are not always exact repeats. Equal values may be shown once. Toxic doses and inconclusive results are not listed.

System: BDF1 mice, Lewis lung carcinoma iv, survival T/C
Test: NCI In Vivo Anticancer Drug Screen. Data for tumor model Lewis Lung Carcinoma (intravenous) in B6D2F1 (BDF1) mice
Conditions: endpoint: median survival time, higher = longer survival
Description: The antitumor activity of compounds was measured in mice bearing transplantable tumors. Survival or tumor size were measured and the results are expressed as the measurement made in the treated group (T) divided by the measurement made in the vehicle treated control group (C). The tumor model used in this assay is Lewis Lung Carcinoma (intravenous) in B6D2F1 (BDF1) mice

[1] = dose: 3.12 mg/kg/injection, schedule: Q01DX009 (ip), vehicle: saline with Tween-80
[2] = dose: 6.25 mg/kg/injection, schedule: Q01DX009 (ip), vehicle: saline with Tween-80
[3] = dose: 12.5 mg/kg/injection, schedule: Q01DX009 (ip), vehicle: saline with Tween-80
[4] = dose: 3.12 mg/kg/injection, schedule: Q01DX009 (ip), vehicle: Klucel (hydroxypropylcellulose) (HPC)
[5] = dose: 6.25 mg/kg/injection, schedule: Q01DX009 (ip), vehicle: Klucel (hydroxypropylcellulose) (HPC)
[6] = dose: 12.5 mg/kg/injection, schedule: Q01DX009 (ip), vehicle: Klucel (hydroxypropylcellulose) (HPC)
[7] = dose: 25.0 mg/kg/injection, schedule: Q01DX009 (ip), vehicle: Klucel (hydroxypropylcellulose) (HPC)
[8] = dose: 50.0 mg/kg/injection, schedule: Q01DX009 (ip), vehicle: Klucel (hydroxypropylcellulose) (HPC)
[9] = dose: 100.0 mg/kg/injection, schedule: Q01DX009 (ip), vehicle: Klucel (hydroxypropylcellulose) (HPC)
[10] = dose: 25.0 mg/kg/injection, schedule: Q01DX009 (ip), vehicle: saline with Tween-80
[11] = dose: 50.0 mg/kg/injection, schedule: Q01DX009 (ip), vehicle: saline with Tween-80
[12] = dose: 100.0 mg/kg/injection, schedule: Q01DX009 (ip), vehicle: saline with Tween-80
[13] = dose: 200.0 mg/kg/injection, schedule: Q01DX009 (ip), vehicle: saline with Tween-80
[14] = dose: 50.0 mg/kg/injection, schedule: Q01DX009 (ip), vehicle: saline
[15] = dose: 100.0 mg/kg/injection, schedule: Q01DX009 (ip), vehicle: saline
[16] = dose: 200.0 mg/kg/injection, schedule: Q01DX009 (ip), vehicle: saline
[17] = dose: 6.0 mg/kg/injection, schedule: Q01DX009 (ip), vehicle: saline
[18] = dose: 12.0 mg/kg/injection, schedule: Q01DX009 (ip), vehicle: saline
[19] = dose: 25.0 mg/kg/injection, schedule: Q01DX009 (ip), vehicle: saline
[20] = dose: 400.0 mg/kg/injection, schedule: Q01DX009 (ip), vehicle: saline with Tween-80

O=c1ccn(C2OC(CO)C(O)C2O)c(=O)[nH]1 (stereo not drawn)
T/C (dose: 32.0 mg/kg/injection, schedule: Q01DX009 (ip), vehicle: Klucel (hydroxypropylcellulose) (HPC)): 109 % of control | T/C (dose: 64.0 mg/kg/injection, schedule: Q01DX009 (ip), vehicle: Klucel (hydroxypropylcellulose) (HPC)): 96 % of control | T/C (dose: 128.0 mg/kg/injection, schedule: Q01DX009 (ip), vehicle: Klucel (hydroxypropylcellulose) (HPC)): 96 % of control | T/C (dose: 256.0 mg/kg/injection, schedule: Q01DX009 (ip), vehicle: Klucel (hydroxypropylcellulose) (HPC)): 110 % of control | T/C (dose: 512.0 mg/kg/injection, schedule: Q01DX009 (ip), vehicle: Klucel (hydroxypropylcellulose) (HPC)): 106 % of control

O=C1C2(Cl)C3(Cl)C4(Cl)C(Cl)(Cl)C5(Cl)[C@]3(Cl)C1(Cl)[C@]5(Cl)C24Cl (stereo partly drawn)
T/C (dose: 1.56 mg/kg/injection, schedule: Q01DX009 (ip), vehicle: saline with Tween-80): 301 % of control | T/C [1]: 110 % of control | T/C [2]: 95 % of control | T/C [3]: 122 % of control

CC(C)C(=O)OCC1OC(n2cnc3c(=S)nc(N)[nH]c32)C(OC(=O)C(C)C)C1OC(=O)C(C)C (stereo not drawn)
T/C [4]: 97 % of control | T/C [5]: 90 % of control

Clc1ccc(C2SC=Cc3ccccc32)cc1 (stereo not drawn)
T/C [6]: 94 % of control | T/C [7]: 105 % of control | T/C [8]: 108 % of control | T/C [9]: 108 % of control | T/C (dose: 200.0 mg/kg/injection, schedule: Q01DX009 (ip), vehicle: Klucel (hydroxypropylcellulose) (HPC)): 115 % of control | T/C (dose: 400.0 mg/kg/injection, schedule: Q01DX009 (ip), vehicle: Klucel (hydroxypropylcellulose) (HPC)): 108 % of control

CCCC(=O)Oc1ccc(/C=N/NC(N)=S)nc1
T/C [3]: 104 % of control and 109 % of control | T/C [10]: 109 % of control | T/C [11]: 96 % of control and 109 % of control | T/C [12]: 97 % of control and 104 % of control | T/C [13]: 120 % of control

CCC1(O)CC2CN(CCc3c([nH]c4ccccc34)C(C(=O)OC)(c3cc4c(cc3OC)N(C)C3C(O)(C(=O)NCCO)C(O)C5(CC)C=CCN6CCC43C65)C2)C1 (stereo not drawn)
T/C (dose: 0.6 mg/kg/injection, schedule: Q04DX003 (ip), vehicle: saline): 96 % of control | T/C (dose: 1.0 mg/kg/injection, schedule: Q04DX003 (ip), vehicle: saline): 101 % of control | T/C (dose: 1.67 mg/kg/injection, schedule: Q04DX003 (ip), vehicle: saline): 101 % of control | T/C (dose: 216.0 micrograms/kg/injection, schedule: Q01DX009 (ip), vehicle: saline): 111 % of control | T/C (dose: 360.0 micrograms/kg/injection, schedule: Q01DX009 (ip), vehicle: saline): 111 % of control

CCc1cc(C(N)=S)ccn1
T/C (dose: 72.0 mg/kg/injection, schedule: Q01DX007 (ip), vehicle: Klucel (hydroxypropylcellulose) (HPC)): 96 % of control | T/C (dose: 102.9 mg/kg/injection, schedule: Q01DX007 (ip), vehicle: Klucel (hydroxypropylcellulose) (HPC)): 95 % of control | T/C (dose: 147.0 mg/kg/injection, schedule: Q01DX007 (ip), vehicle: Klucel (hydroxypropylcellulose) (HPC)): 86 % of control | T/C (dose: 300.0 mg/kg/injection, schedule: Q01DX007 (ip), vehicle: Klucel (hydroxypropylcellulose) (HPC)): 99 % of control

c1cc2n(n1)CCN2
T/C [14]: 105 % of control | T/C [15]: 104 % of control | T/C [16]: 86 % of control

Nc1ncnc2c1ncn2C1C=C(CO)C(O)C1O (stereo not drawn)
T/C (dose: 0.5 mg/kg/injection, schedule: Q01DX009 (ip), vehicle: saline): 102 % of control | T/C (dose: 1.0 mg/kg/injection, schedule: Q01DX009 (ip), vehicle: saline): 98 % of control | T/C (dose: 2.0 mg/kg/injection, schedule: Q01DX009 (ip), vehicle: saline): 88 % of control | T/C (dose: 4.0 mg/kg/injection, schedule: Q01DX009 (ip), vehicle: saline): 95 % of control

CC(C)NC(=O)OCc1c(COC(=O)NC(C)C)c(-c2ccc(Cl)c(Cl)c2)n2c1CCC2
T/C (dose: 1.56 mg/kg/injection, schedule: Q01DX009 (ip), vehicle: distilled water + Tween-80): 108 % of control | T/C (dose: 3.13 mg/kg/injection, schedule: Q01DX009 (ip), vehicle: distilled water + Tween-80): 97 % of control | T/C (dose: 6.25 mg/kg/injection, schedule: Q01DX009 (ip), vehicle: distilled water + Tween-80): 101 % of control | T/C (dose: 12.5 mg/kg/injection, schedule: Q01DX009 (ip), vehicle: distilled water + Tween-80): 119 % of control | T/C (dose: 50.0 mg/kg/injection, schedule: Q01DX009 (ip), vehicle: distilled water + Tween-80): 109 % of control

ClC1(c2ccccc2)c2ccc(Br)cc2-c2cc(Br)ccc21
T/C [10]: 102 % of control | T/C [11]: 105 % of control | T/C [12]: 110 % of control

CN1CCN(c2ccc3nc(-c4ccc5nc(-c6ccc(O)cc6)[nH]c5c4)[nH]c3c2)CC1
T/C [17]: 95 % of control | T/C [18]: 98 % of control | T/C [19]: 120 % of control | T/C [14]: 102 % of control | T/C [15]: 100 % of control

C1CCC2OCCOCCOC3CCCCC3OCCOCCOC2C1 (stereo not drawn)
T/C [4]: 92 % of control | T/C [5]: 87 % of control | T/C [6]: 101 % of control | T/C [7]: 93 % of control | T/C [8]: 91 % of control

COc1cccc2c1C(=O)c1c(O)c3c(c(O)c1C2=O)C[C@@](O)(/C(C)=N\NC(=O)CO)C[C@@H]3OC1CC(N)C(O)C(C)O1 (stereo partly drawn)
T/C (dose: 0.37 mg/kg/injection, schedule: Q01DX009 (ip), vehicle: saline): 105 % of control | T/C (dose: 0.75 mg/kg/injection, schedule: Q01DX009 (ip), vehicle: saline): 106 % of control | T/C (dose: 1.5 mg/kg/injection, schedule: Q01DX009 (ip), vehicle: saline): 101 % of control | T/C (dose: 3.0 mg/kg/injection, schedule: Q01DX009 (ip), vehicle: saline): 115 % of control | T/C [17]: 103 % of control | T/C [18]: 105 % of control

O=C1C=CC(n2cc(F)c(=O)[nH]c2=O)O1 (stereo not drawn)
T/C (dose: 6.25 mg/kg/injection, schedule: Q01DX009 (ip), vehicle: saline): 106 % of control | T/C (dose: 12.5 mg/kg/injection, schedule: Q01DX009 (ip), vehicle: saline): 96 % of control | T/C [19]: 103 % of control | T/C [14]: 119 % of control

COc1ccc2[nH]c3c(c2c1)CCNC3CC(C)CCC=C(C)C (stereo not drawn)
T/C [5]: 116 % of control | T/C [6]: 98 % of control | T/C [7]: 102 % of control | T/C [8]: 95 % of control | T/C [9]: 107 % of control

O=CN(SSN(C=O)C1CCCCC1)C1CCCCC1
T/C [3]: 114 % of control | T/C [10]: 108 % of control | T/C [11]: 99 % of control | T/C [12]: 95 % of control | T/C [13]: 101 % of control | T/C [20]: 87 % of control

COCCOC
T/C [15]: 100 % of control | T/C [16]: 102 % of control | T/C (dose: 400.0 mg/kg/injection, schedule: Q01DX009 (ip), vehicle: saline): 100 % of control

OC1CCCC2CCCNC12 (stereo not drawn)
T/C [1]: 104 % of control | T/C [2]: 100 % of control | T/C [3]: 152 % of control | T/C [10]: 96 % of control | T/C [11]: 99 % of control | T/C [12]: 95 % of control

CN(C)CCN1C(=O)c2cccc3cc(N)cc(c23)C1=O
T/C (dose: 1.0 mg/kg/injection, schedule: Q01DX009 (ip), vehicle: saline with Tween-80): 100 % of control | T/C (dose: 2.0 mg/kg/injection, schedule: Q01DX009 (ip), vehicle: saline with Tween-80): 100 % of control | T/C (dose: 4.0 mg/kg/injection, schedule: Q01DX009 (ip), vehicle: saline with Tween-80): 97 % of control | T/C (dose: 8.0 mg/kg/injection, schedule: Q01DX009 (ip), vehicle: saline with Tween-80): 98 % of control | T/C (dose: 16.0 mg/kg/injection, schedule: Q01DX009 (ip), vehicle: saline with Tween-80): 116 % of control

CN1c2ccc3ccccc3c2Sc2ccc3ccccc3c21
T/C [12]: 98 % of control | T/C [13]: 98 % of control | T/C [20]: 111 % of control

Nc1ccccc1N
T/C [6]: 96 % of control | T/C [7]: 107 % of control | T/C [8]: 101 % of control | T/C [9]: 91 % of control
